Each block holds one compound with its values, some of them ahead of it.
What was measured:
[1] = target: Phosphatidylinositol 3-kinase catalytic subunit type 3 (Homo sapiens, UniProt Q8NEB9); assay: Selectivity interaction (KinomeScan (DiscoverX)) EUB0001049a PIK3C3; conditions: at 1 µM
[2] = target: Tyrosine-protein kinase ABL2 (Homo sapiens, UniProt P42684); assay: Selectivity interaction (ActivX KiNativ screen (kinase selectivity in THP-1 cell lysates)) EUB0000639a ABL2; assay type: subcellular; conditions: lysate, at 5 µM
Sequence of Tyrosine-protein kinase ABL2 (P42684 whole entry): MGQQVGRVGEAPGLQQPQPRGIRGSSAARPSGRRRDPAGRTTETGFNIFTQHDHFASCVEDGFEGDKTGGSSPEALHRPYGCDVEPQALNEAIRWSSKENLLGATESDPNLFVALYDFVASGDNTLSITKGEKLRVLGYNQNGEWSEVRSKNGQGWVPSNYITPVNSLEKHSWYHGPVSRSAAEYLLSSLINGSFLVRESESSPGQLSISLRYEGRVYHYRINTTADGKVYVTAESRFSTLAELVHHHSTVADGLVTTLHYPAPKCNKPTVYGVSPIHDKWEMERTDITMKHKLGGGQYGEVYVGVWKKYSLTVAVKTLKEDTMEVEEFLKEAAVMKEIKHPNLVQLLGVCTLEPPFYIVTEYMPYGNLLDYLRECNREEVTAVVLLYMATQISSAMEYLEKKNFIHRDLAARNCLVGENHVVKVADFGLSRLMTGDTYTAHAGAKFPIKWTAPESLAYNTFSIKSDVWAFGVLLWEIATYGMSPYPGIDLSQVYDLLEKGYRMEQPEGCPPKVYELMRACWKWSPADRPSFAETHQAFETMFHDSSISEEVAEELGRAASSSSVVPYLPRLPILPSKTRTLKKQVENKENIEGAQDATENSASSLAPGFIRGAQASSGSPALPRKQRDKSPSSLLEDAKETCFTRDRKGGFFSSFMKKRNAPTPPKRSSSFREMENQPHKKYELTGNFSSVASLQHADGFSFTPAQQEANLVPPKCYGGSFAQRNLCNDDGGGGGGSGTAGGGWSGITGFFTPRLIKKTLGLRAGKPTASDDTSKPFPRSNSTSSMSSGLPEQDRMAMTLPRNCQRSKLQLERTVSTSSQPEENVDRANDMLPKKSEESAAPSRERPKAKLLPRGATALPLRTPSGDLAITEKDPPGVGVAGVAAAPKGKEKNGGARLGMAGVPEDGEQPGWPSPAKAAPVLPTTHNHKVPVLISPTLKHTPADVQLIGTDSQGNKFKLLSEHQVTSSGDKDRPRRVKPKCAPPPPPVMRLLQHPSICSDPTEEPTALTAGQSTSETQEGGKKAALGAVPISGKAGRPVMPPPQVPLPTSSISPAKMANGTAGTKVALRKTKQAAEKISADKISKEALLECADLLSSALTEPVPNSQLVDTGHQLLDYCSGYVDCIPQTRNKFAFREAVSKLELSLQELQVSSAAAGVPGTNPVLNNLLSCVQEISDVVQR

[3] = target: Serine/threonine-protein kinase pim-1 (Homo sapiens, UniProt P11309); conditions: at 10 µM
Sequence of Serine/threonine-protein kinase pim-1 (P11309 whole entry, looked up): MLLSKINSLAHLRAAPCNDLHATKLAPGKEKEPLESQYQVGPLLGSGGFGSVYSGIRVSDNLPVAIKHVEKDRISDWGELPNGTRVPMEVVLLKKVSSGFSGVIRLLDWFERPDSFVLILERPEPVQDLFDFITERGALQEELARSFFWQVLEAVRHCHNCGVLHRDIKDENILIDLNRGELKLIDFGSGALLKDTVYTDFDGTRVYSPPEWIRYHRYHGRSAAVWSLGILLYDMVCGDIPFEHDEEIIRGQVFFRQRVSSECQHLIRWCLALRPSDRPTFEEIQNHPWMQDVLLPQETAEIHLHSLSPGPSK

[4] = target: DNA (cytosine-5)-methyltransferase 1 (Homo sapiens) (UniProt P26358); assay: Selectivity interaction (Methyltransferase screen (radiometric assays, panel of 8 PRMTs, 21 protein lysine methyltransferases, 3 DNA methyltransferases, and one RNA methyltransferase)) EUB0000271b DNMT1
Sequence of DNA (cytosine-5)-methyltransferase 1 (Homo sapiens) (P26358 whole entry): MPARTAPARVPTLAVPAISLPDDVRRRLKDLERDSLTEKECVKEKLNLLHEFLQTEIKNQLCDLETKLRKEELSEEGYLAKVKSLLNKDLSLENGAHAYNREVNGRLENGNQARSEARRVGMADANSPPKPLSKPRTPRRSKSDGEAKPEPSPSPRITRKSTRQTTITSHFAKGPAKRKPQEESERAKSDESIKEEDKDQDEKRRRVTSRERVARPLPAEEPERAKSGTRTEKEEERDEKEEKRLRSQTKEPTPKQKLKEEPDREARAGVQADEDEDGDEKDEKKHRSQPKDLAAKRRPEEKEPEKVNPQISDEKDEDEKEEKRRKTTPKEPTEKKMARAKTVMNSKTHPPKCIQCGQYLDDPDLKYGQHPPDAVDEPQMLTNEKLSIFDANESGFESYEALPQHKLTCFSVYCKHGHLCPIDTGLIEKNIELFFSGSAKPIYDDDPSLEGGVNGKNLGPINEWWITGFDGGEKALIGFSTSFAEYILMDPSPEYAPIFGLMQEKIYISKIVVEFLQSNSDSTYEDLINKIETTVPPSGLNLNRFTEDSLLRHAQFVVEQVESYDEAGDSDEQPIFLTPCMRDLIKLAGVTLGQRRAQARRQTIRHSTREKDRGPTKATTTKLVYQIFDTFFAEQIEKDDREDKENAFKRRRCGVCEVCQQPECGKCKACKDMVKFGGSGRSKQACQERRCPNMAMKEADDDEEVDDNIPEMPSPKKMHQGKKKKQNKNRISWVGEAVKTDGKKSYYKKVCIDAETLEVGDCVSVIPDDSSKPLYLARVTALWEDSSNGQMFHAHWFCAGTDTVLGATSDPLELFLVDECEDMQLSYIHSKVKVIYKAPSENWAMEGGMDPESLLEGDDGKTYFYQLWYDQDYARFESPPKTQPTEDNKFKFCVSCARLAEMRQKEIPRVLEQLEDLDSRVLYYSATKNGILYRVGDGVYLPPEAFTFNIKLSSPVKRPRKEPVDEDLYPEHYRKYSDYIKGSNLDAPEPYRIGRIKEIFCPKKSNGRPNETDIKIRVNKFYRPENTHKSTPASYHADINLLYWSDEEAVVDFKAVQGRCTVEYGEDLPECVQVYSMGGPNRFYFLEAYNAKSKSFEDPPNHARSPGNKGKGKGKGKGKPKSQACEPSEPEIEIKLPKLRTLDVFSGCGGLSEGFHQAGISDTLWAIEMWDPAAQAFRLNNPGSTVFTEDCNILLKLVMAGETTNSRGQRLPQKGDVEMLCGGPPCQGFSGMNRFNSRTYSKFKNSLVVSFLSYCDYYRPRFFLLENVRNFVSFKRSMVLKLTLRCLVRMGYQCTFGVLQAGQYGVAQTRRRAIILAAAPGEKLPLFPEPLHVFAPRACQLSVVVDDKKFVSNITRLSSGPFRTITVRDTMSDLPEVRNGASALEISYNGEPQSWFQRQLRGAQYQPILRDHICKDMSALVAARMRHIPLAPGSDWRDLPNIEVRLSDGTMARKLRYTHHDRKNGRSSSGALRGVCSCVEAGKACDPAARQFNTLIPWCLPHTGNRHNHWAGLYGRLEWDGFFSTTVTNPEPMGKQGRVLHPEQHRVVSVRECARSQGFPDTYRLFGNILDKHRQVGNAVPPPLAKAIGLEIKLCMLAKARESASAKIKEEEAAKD

[5] = target: T1, Beta-adrenergic receptor kinase 1 (Homo sapiens) (UniProt P25098); assay: Selectivity interaction (KinomeScan (DiscoverX)) EUB0000229b ADRBK1; conditions: at 10 µM
T1 sequence (whole entry): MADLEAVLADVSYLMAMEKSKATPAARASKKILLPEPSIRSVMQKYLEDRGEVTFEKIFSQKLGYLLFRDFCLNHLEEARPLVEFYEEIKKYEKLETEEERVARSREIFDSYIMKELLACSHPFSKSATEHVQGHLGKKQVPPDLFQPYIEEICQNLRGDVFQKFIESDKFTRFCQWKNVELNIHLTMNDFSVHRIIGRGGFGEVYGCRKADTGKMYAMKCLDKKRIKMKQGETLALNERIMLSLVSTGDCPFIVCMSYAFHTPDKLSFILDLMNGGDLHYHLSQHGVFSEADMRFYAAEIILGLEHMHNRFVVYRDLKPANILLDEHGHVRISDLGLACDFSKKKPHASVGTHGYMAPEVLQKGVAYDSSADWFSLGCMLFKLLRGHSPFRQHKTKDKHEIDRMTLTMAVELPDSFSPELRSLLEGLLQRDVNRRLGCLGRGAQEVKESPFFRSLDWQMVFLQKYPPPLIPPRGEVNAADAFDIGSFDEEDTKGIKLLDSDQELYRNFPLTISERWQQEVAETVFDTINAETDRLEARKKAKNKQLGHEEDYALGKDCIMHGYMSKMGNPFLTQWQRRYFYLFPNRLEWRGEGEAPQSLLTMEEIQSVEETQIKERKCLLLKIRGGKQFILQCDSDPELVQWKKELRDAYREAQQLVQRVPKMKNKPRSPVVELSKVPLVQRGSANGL

[6] = target: T2, Bromodomain-containing protein 9 (Homo sapiens, UniProt Q9H8M2); assay: Selectivity interaction (ITC measurement) EUB0000233b BRD9
T2 sequence (Q9H8M2 whole entry): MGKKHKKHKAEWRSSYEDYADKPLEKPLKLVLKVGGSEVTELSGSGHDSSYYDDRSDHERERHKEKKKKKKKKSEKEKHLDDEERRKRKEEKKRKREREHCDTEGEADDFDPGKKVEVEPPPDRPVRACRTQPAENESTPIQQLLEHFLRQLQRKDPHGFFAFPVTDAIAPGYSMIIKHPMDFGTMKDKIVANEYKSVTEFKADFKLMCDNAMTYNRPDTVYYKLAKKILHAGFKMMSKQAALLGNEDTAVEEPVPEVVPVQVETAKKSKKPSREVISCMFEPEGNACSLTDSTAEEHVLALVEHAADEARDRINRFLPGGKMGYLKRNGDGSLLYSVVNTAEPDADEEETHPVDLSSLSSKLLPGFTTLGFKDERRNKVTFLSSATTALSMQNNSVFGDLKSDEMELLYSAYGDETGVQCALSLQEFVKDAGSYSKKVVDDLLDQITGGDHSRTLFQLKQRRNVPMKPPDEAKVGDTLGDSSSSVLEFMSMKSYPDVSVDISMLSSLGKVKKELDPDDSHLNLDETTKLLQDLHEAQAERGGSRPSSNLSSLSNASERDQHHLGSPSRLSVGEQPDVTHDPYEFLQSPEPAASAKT

[7] = target: T3, Serine/threonine-protein kinase BRSK1 (Homo sapiens) (UniProt Q8TDC3); assay: Selectivity interaction (KinomeScan (DiscoverX)) EUB0000045b BRSK1
T3 sequence (whole entry): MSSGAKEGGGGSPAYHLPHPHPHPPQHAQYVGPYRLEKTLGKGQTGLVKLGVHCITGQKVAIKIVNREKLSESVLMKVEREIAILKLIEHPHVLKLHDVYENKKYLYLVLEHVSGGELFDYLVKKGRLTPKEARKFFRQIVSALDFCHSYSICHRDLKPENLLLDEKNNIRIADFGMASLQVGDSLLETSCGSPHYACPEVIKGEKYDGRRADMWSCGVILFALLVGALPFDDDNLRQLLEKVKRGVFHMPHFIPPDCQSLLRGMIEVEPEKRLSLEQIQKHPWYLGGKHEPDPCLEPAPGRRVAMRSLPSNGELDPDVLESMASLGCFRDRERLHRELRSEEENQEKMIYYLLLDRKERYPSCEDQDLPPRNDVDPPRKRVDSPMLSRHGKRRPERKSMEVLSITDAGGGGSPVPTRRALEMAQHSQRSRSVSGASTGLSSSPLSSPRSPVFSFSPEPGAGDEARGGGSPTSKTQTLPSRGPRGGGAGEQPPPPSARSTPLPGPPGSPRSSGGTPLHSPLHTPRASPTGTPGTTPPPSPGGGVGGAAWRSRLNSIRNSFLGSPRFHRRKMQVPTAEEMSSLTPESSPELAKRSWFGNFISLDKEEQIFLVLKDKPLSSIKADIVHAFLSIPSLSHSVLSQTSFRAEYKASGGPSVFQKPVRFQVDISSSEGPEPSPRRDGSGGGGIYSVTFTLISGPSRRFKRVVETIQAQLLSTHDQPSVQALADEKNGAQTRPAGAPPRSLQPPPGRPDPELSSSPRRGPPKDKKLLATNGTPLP

[8] = target: Tyrosine-protein kinase ABL1 (Homo sapiens, UniProt P00519); assay: Selectivity interaction (KinomeScan (DiscoverX)) EUB0000618a ABL1; conditions: at 10 µM
Sequence of Tyrosine-protein kinase ABL1 (P00519 whole entry): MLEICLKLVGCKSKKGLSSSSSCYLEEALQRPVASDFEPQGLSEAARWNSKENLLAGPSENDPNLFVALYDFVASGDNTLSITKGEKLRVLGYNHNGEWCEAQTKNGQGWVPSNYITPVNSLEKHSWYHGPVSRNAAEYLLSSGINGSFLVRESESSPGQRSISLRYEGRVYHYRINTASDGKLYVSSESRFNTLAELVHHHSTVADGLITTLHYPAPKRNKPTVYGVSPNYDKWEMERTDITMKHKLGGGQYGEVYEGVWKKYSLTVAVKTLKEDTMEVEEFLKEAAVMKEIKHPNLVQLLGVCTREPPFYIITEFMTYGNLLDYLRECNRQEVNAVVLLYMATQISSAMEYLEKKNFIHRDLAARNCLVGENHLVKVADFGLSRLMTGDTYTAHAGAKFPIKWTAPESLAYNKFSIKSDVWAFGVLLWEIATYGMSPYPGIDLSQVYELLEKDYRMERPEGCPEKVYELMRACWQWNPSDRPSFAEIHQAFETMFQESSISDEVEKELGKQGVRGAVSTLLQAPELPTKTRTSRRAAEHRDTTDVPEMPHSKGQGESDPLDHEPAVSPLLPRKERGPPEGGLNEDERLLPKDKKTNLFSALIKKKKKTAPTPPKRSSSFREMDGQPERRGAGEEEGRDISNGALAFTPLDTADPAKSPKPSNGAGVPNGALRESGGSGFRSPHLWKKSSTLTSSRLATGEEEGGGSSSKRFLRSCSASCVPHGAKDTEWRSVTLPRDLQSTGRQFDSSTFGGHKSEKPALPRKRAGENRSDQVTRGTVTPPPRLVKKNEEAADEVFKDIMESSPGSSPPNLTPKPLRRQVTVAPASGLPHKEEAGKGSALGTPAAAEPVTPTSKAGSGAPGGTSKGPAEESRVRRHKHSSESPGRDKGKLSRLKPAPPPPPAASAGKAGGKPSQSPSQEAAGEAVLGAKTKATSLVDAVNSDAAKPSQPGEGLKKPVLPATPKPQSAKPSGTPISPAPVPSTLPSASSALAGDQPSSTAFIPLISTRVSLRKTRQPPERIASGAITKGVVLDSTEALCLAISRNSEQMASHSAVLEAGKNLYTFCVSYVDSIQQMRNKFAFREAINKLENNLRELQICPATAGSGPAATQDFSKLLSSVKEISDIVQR

[9] = target: Myosin light chain kinase, smooth muscle (Homo sapiens, UniProt Q15746); assay: Selectivity interaction (KinomeScan (DiscoverX)) EUB0000618a MYLK; conditions: at 10 µM
Activated CDC42 kinase 1 = Activated CDC42 kinase 1 (Homo sapiens, UniProt Q07912); assay: Selectivity interaction (KinomeScan (DiscoverX)) EUB0000666a TNK2; conditions: at 10 µM

Sequence of Phosphatidylinositol 3-kinase catalytic subunit type 3 (Q8NEB9 whole entry): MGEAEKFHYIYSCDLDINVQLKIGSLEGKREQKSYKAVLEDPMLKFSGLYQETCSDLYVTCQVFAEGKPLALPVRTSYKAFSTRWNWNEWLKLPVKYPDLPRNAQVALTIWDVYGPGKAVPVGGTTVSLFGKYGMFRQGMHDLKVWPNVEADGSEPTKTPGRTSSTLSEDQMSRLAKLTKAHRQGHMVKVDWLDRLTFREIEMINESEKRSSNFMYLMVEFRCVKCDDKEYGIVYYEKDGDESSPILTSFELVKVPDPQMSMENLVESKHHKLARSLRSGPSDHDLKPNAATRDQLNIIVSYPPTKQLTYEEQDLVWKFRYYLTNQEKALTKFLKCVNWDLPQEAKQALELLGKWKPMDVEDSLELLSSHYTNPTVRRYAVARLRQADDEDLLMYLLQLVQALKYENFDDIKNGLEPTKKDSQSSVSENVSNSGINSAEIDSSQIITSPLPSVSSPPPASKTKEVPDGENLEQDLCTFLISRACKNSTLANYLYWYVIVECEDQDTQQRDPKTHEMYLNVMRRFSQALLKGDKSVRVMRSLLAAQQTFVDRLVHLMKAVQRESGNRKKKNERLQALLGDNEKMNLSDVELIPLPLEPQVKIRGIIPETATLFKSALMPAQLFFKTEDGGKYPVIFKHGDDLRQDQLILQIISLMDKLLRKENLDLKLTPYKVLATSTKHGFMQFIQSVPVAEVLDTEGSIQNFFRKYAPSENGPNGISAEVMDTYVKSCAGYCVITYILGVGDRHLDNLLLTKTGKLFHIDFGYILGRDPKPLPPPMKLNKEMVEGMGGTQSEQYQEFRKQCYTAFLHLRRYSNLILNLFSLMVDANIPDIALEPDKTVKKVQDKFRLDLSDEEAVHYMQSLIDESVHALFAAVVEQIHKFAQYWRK

SMILES: COc1cc(Nc2nc(C)cc(-c3cnn4nc(OC)ccc34)n2)cc(C(F)(F)F)c1
- % of control [1]: 100%

- % of inhibition [2]: 30.7%
SMILES: CC[C@@H]1[C@H](F)C(=O)N[C@@H]1COc1nccc2cc(C(N)=O)c(OC)cc12 [ZIMLOVISERTIB]

- % of control [3]: 100%
SMILES: CCN(CC)CCCCNc1ncc2cc(-c3cc(OC)cc(OC)c3)c(NC(=O)NC(C)(C)C)nc2n1

SMILES: Cc1cc(C)cc([C@@H]2c3cc(C)ccc3NC(=O)CN2C(=O)c2ccc(Br)s2)c1
- % of activity ([4]; at 1 µM): 98.3%
- % of activity ([4]; at 10 µM): 97.7%

SMILES: COc1cc(N(C)c2ccnc3ccc(C(F)(F)F)cc23)cc(OC)c1OC
- % binding [5]: 92%

- Kd [6]: 1.1 µM
SMILES: CN(C)CCCOc1ccc(-c2cc(NCCCn3cccn3)nc(S(C)(=O)=O)n2)cc1

SMILES: C=CC(=O)Nc1cc(-n2c(=O)ccc3cnc4ccc(-c5ccc(NS(C)(=O)=O)cc5)cc4c32)ccc1C
- % of control ([7]; at 1 µM): 100%
- % of control ([7]; at 10 µM): 97%

SMILES: O[C@H]1CC[C@H](Nc2ncc3nc(Nc4c(F)cc(F)cc4F)n([C@H]4CCOC4)c3n2)CC1
- % of control [8]: 34%
- % of control [9]: 65%

SMILES: O=C(NOC[C@H](O)CO)c1ccc(F)c(F)c1Nc1ccc(I)cc1F
- % of control (Activated CDC42 kinase 1): 72%
